Test results reported in ChEMBL document CHEMBL5236658, “Trienomycin A-simplified analogs: Synthesis and anti-neuroinflammatory activity” (Bioorg Med Chem Lett, 2023).

Columns and labels:
[1] = Neurotoxicity against rat PC-12 cells at 20 uM incubated for 24 hrs by MTT assay; type: toxicity, cell-based; conditions: pc-12, 24 h
[2] = Cytotoxicity against mouse BV-2 cells assessed as cell viability at 20 uM; type: toxicity, cell-based; conditions: read-out: Activity
BV-2 [3] = test: Antineuroinflammatory activity in mouse BV-2 cells assessed as inhibition of LPS-induced NO production by Griess assay; type: functional, cell-based
BV-2 [4] = test: Antineuroinflammatory activity in mouse BV-2 cells assessed as inhibition of LPS-induced NO production at 10 uM by Griess assay; type: functional; parameters: scale not given: the % may be the effect or the level left
PC-12 = test: Neuroprotective activity against H2O2-induced rat PC-12 cells injury assessed as cell viability at 10 uM preincubated for 4 hrs followed by H2O2 stimulation and measured after 24 hrs by MTT assay (reference value: 56%); type: functional; conditions: time 28 hrs, read-out: Activity

| Compound | Activity [1] | viability at 20 µM [2] | EC50 (BV-2 [3]) | Activity (BV-2 [4]) | viability at 10 µM (PC-12) |
| --- | --- | --- | --- | --- | --- |
| C[C@@H](NC(=O)C1CCCCC1)C(=O)OC1CCCCC1 | Non-Toxic | 97.5% | 22 µM | 34.6% | – |
| C[C@H](NC(=O)C1CCCCC1)C(=O)OCC1CCCCC1 | Non-Toxic | 92.7% | 8.9 µM | 52.9% | 76% |
| CO[C@H]1/C=C/C=C/C=C/C[C@H](OC(=O)[C@@H](C)NC(=O)C2CCCCC2)[C@H](C)[C@@H](O)/C(C)=C\CCc2cc(O)cc(c2)NC(=O)C1 [TRIENOMYCIN A] | – | – | 0.02 µM | – | – |
| C[C@H](NC(=O)C1CCCCC1)C(=O)OC1CCCCC1 | Non-Toxic | 91.5% | 17.3 µM | 41.8% | 67% |
| C[C@@H](NC(=O)C1CCCCC1)C(=O)OC1C=CCCC1 (some centres undefined) | – | 85.4% | – | 14.5% | – |
| C[C@@H](NC(=O)C1CCCCC1)C(=O)OC1CCCCCC1 | – | 96.1% | – | 18% | – |
| C[C@H](NC(=O)C1CCCCC1)C(=O)OCc1ccccc1 | Non-Toxic | 90% | 23.6 µM | 31.8% | – |
| C[C@@H](NC(=O)C1CCCCC1)C(=O)OC1CCCCCCC1 | – | 84% | – | 8.3% | – |
| O=c1c(O)c(-c2ccc(O)c(O)c2)oc2cc(O)cc(O)c12 [QUERCETIN] | – | 98.7% | – | 63.2% | – |
| C[C@@H](NC(=O)C1CCCCC1)C(=O)O | – | 101% | – | 6.72% | – |
| C[C@@H](NC(=O)C1CCCCC1)C(=O)OC1CCC1 | – | 106% | – | 8% | – |
| C[C@@H](NC(=O)C1CCCCC1)C(=O)OCc1ccccc1 | Non-Toxic | 93% | 12.4 µM | 47.2% | 80% |
| C[C@@H](NC(=O)C1CCCCC1)C(=O)OC1CC=CC1 | – | 91.5% | – | 17.7% | – |
| C[C@@H](NC(=O)C1CCCCC1)C(=O)OC1CCCCCCCCCCC1 | – | 105% | – | 19% | – |
| C[C@@H](NC(=O)C1CCCCC1)C(=O)OC1CCCC1 | Non-Toxic | 86.2% | – | 36% | – |
| C[C@@H](NC(=O)C1CCCCC1)C(=O)OCC1CCCCC1 | Non-Toxic | 98.3% | 24.1 µM | 31.1% | – |
| CO[C@H]1/C=C/C=C/C=C/C[C@H](O)[C@H](C)[C@@H](O)/C(C)=C\CCc2cc(O)cc(c2)NC(=O)C1 | – | – | 13 µM | – | – |
| C[C@@H](NC(=O)C1CCCCC1)C(=O)OC1CC1 | – | 97.6% | – | 9.7% | – |
| C[C@@H](NC(=O)C1CCCCC1)C(=O)OC1CC/C=C\CCC1 (some centres undefined) | – | 112% | – | 28.4% | – |
| C[C@@H](NC(=O)C1CCCCC1)C(=O)OC1CCCCCCCCCCCCCC1 | – | 109% | – | 12.5% | – |
